Twelve compounds from ChEMBL document CHEMBL1150740, “Studies on inhibitors of skin-tumor promotion, I. Inhibitory effects of triterpenes from Euptelea polyandra on Epstein-Barr virus activation” (J Nat Prod, 1987) can be followed below.

Holding throughout (assay type): cell-based
Data set [1] relates to Raji. Nature of the data set: Inhibition of TPA-induced EBV-early antigen activation in human Raji cells assessed as early antigen activation at 5000 mol ratio after 48 hrs relative to TPA. Also on record: scale not given: the % may be the effect or the level left. As to conditions: human gammaherpesvirus 4.
Data set [2] has as its system Raji. Nature of the data set: Inhibition of TPA-induced EBV-early antigen activation in human Raji cells assessed as early antigen activation at 1000 mol ratio after 48 hrs relative to TPA. Also on record: scale not given: the % may be the effect or the level left. As to conditions: human gammaherpesvirus 4.
For data set [3], the system named is Raji. Nature of the data set: Inhibition of TPA-induced EBV-early antigen activation in human Raji cells assessed as early antigen activation at 100 mol ratio after 48 hrs relative to TPA. Conditions: human gammaherpesvirus 4.
In data set [4] the test system is Raji. Nature of the data set: Inhibition of TPA-induced EBV-early antigen activation in human Raji cells assessed as early antigen activation at 10 mol ratio after 48 hrs relative to TPA. Conditions: human gammaherpesvirus 4.
The test system of data set [5] is Raji. Nature of the data set: Inhibition of EBV-early antigen activation in human Raji cells assessed as early antigen activation at 1 uM ratio after 48 hrs. Further details: scale not given: the % may be the effect or the level left.
Data set [6] in a line: Cytotoxicity against human Raji cells assessed as cell viability at 5000 mol ratio after 48 hrs relative to TPA. As to conditions: read-out: Activity.
The nature of data set [7]: Cytotoxicity against human Raji cells assessed as cell viability at 1000 mol ratio after 48 hrs relative to TPA. Conditions: read-out: Activity.
Data set [8] can be described thus: Cytotoxicity against human Raji cells assessed as cell viability at 100 mol ratio after 48 hrs relative to TPA. As to conditions: read-out: Activity.
Data set [9] in a line: Cytotoxicity against human Raji cells assessed as cell viability at 10 mol ratio after 48 hrs relative to TPA. Conditions: read-out: Activity.

Where only a bound is given, the exact number is not on record here.

`C=C(C)[C@@H]1CC[C@]2(C(=O)O)CC[C@]3(C)[C@H](CC[C@@H]4[C@@]5(C)CC[C@H](OC(C)=O)C(C)(C)[C@@H]5CC[C@]43C)[C@@H]12`: the Activity in [1], in data set [2] and in data set [5] was 0% in each case. Also, the EBV early antigen activation relative to TPA in data set [3] worked out at 55.1%. Besides, the EBV-EA activation relative to TPA in data set [4] was 100%. Besides, the viability at 48 h, 5000 mol ratio relative to TPA in data set [6] amounted to 80%. The viability at 48 h, 1000 mol ratio relative to TPA in data set [7] is 80%. For the same compound, the viability at 48 h, 100 mol ratio relative to TPA in data set [8] came to 80%. For the same compound, the viability at 48 h, 10 mol ratio relative to TPA in [9] came out at 100%.

For `CC1(C)CC[C@]2(C)CC[C@]3(C)C(=CC[C@@H]4[C@@]5(C)C(=O)CC(=O)C(C)(C)[C@@H]5CC[C@]43C)[C@@H]2C1`, the Activity in data set [1], in [2] and in [5] was 0% throughout. The EBV early antigen activation relative to TPA in data set [3] came out at 100%. In data set [4], the EBV-EA activation relative to TPA is 100%. The viability at 48 h, 5000 mol ratio relative to TPA in data set [6] is 0%. Besides, in data set [7], the viability at 48 h, 1000 mol ratio relative to TPA was determined as 20%. Further, the viability at 48 h, 100 mol ratio relative to TPA in data set [8] turned out to be 100%. Also, in [9], the viability at 48 h, 10 mol ratio relative to TPA worked out at 100%.

On to `CC(=O)O[C@H]1CC[C@]2(C)[C@H]3CC=C4[C@@H]5CC(C)(C)CC[C@]5(CO)CC[C@@]4(C)[C@]3(C)CC[C@H]2C1(C)C`, for which the results for the Activity in data set [1], in [2] and in [5] were 0%, 32.3% and 0%, respectively. The EBV early antigen activation relative to TPA in data set [3] was determined as 59.4%. Moreover, the EBV-EA activation relative to TPA in data set [4] is 100%. The viability at 48 h, 5000 mol ratio relative to TPA in [6] was 40%. For the same compound, the viability at 48 h, 1000 mol ratio relative to TPA in [7] was found to be 70%. In addition, the viability at 48 h, 100 mol ratio relative to TPA in data set [8] is greater than 80%. The viability at 48 h, 10 mol ratio relative to TPA in data set [9] was found to be 100%.

As to `CC(=O)O[C@H]1CC[C@]2(C)[C@H]3CC=C4[C@@H]5CC(C)(C)CC[C@]5(C=O)CC[C@@]4(C)[C@]3(C)CC[C@H]2C1(C)C`, the Activity turned out to be 0% in data set [1], 100% in [2] and 0% in data set [5]. In addition, the EBV early antigen activation relative to TPA in data set [3] came to 100%. In addition, in data set [4], the EBV-EA activation relative to TPA is 100%. Also, in [6], the viability at 48 h, 5000 mol ratio relative to TPA was 40%. Also, the viability at 48 h, 1000 mol ratio relative to TPA in data set [7] amounted to 100%. Moreover, the viability at 48 h, 100 mol ratio relative to TPA in [8] turned out to be 100%. The viability at 48 h, 10 mol ratio relative to TPA in [9] was 100%.

As to `CC(=O)OC[C@]12CCC(C)(C)C[C@H]1C1=CC[C@@H]3[C@@]4(C)CC[C@H](OC(C)=O)C(C)(C)[C@@H]4CC[C@@]3(C)[C@]1(C)CC2`, the Activity was 0% in data set [1], 100% in data set [2] and 0% in [5]. For the same compound, the EBV early antigen activation relative to TPA in data set [3] was found to be 100%. The EBV-EA activation relative to TPA in data set [4] stood at 100%. For the same compound, in data set [6], the viability at 48 h, 5000 mol ratio relative to TPA came to 50%. Besides, in data set [7], the viability at 48 h, 1000 mol ratio relative to TPA worked out at 100%. For the same compound, in data set [8], the viability at 48 h, 100 mol ratio relative to TPA turned out to be 100%. For the same compound, the viability at 48 h, 10 mol ratio relative to TPA in data set [9] worked out at 100%.

With `CC(=O)O[C@@H]1C[C@]2(C)[C@H]3CC=C4[C@@H]5CC(C)(C)CC[C@]5(C(=O)O)CC[C@@]4(C)[C@]3(C)CC[C@H]2C(C)(C)[C@H]1OC(C)=O`, the Activity in data set [1], in [2] and in data set [5] was 0% in each case. Also, in data set [3], the EBV early antigen activation relative to TPA worked out at 59.6%. In data set [4], the EBV-EA activation relative to TPA was 100%. For the same compound, in [6], the viability at 48 h, 5000 mol ratio relative to TPA is 0%. The viability at 48 h, 1000 mol ratio relative to TPA in data set [7] was found to be 20%. Besides, the viability at 48 h, 100 mol ratio relative to TPA in [8] came to 70%. Further, the viability at 48 h, 10 mol ratio relative to TPA in data set [9] came to 100%.

`CC(=O)O[C@H]1CC[C@]2(C)[C@H]3CC=C4[C@@H]5CC(C)(C)CC[C@]5(C(=O)O)CC[C@@]4(C)[C@]3(C)CC[C@H]2C1(C)C` [ACETYL OLEANOLIC ACID]: the Activity in [1] turned out to be 0%; in [2], 36.4%; in data set [5] it was 1.6%. In data set [3], the EBV early antigen activation relative to TPA is 100%. Besides, the EBV-EA activation relative to TPA in data set [4] is 100%. Besides, the viability at 48 h, 5000 mol ratio relative to TPA in data set [6] was determined as 50%. For the same compound, the viability at 48 h, 1000 mol ratio relative to TPA in data set [7] was 80%. Further, the viability at 48 h, 100 mol ratio relative to TPA in [8] came to 100%. For the same compound, in data set [9], the viability at 48 h, 10 mol ratio relative to TPA came out at 100%.

On to `C=C(C)[C@@H]1CC[C@]2(C(=O)O)CC[C@]3(C)[C@H](CC[C@@H]4[C@@]5(C)CC[C@H](O)C(C)(C)[C@@H]5CC[C@]43C)[C@@H]12` [BETULINIC ACID], for which the results for the Activity in data set [1], in data set [2] and in data set [5] were 0%, 80% and 0%, respectively. Moreover, the EBV early antigen activation relative to TPA in data set [3] stood at 100%. Moreover, in [6], the viability at 48 h, 5000 mol ratio relative to TPA was 20%. For the same compound, the viability at 48 h, 1000 mol ratio relative to TPA in data set [7] is greater than 80%. Moreover, the viability at 48 h, 100 mol ratio relative to TPA in data set [8] was 100%. Further, the viability at 48 h, 10 mol ratio relative to TPA in data set [9] is 100%.

For `C=C(C)[C@@H]1CC[C@]2(CO)CC[C@]3(C)[C@H](CC[C@@H]4[C@@]5(C)CC[C@H](O)C(C)(C)[C@@H]5CC[C@]43C)[C@@H]12` [BETULIN], the values for the Activity in data set [1], in data set [2] and in data set [5] were 0%, 100% and 1.6%, respectively. Further, the EBV early antigen activation relative to TPA in data set [3] turned out to be 100%. Besides, the EBV-EA activation relative to TPA in data set [4] was determined as 100%. The viability at 48 h, 5000 mol ratio relative to TPA in data set [6] came out at 80%. For the same compound, in data set [7], the viability at 48 h, 1000 mol ratio relative to TPA stood at 100%. The viability at 48 h, 100 mol ratio relative to TPA in data set [8] came out at 100%. Further, in data set [9], the viability at 48 h, 10 mol ratio relative to TPA is 100%.

In the case of `CC1(C)CC[C@]2(CO)CC[C@]3(C)C(=CC[C@@H]4[C@@]5(C)CC[C@H](O)C(C)(C)[C@@H]5CC[C@]43C)[C@@H]2C1` [ERYTHRODIOL], the Activity came to 0% in [1], 19.3% in data set [2] and 0% in data set [5]. Also, the EBV early antigen activation relative to TPA in data set [3] amounted to 71.7%. For the same compound, the EBV-EA activation relative to TPA in data set [4] worked out at 100%. In addition, the viability at 48 h, 5000 mol ratio relative to TPA in [6] came to 10%. The viability at 48 h, 1000 mol ratio relative to TPA in [7] was 50%. The viability at 48 h, 100 mol ratio relative to TPA in [8] is greater than 80%. Besides, in data set [9], the viability at 48 h, 10 mol ratio relative to TPA was 100%.

On to `C=C(C)[C@@H]1CC[C@]2(C)CC[C@]3(C)[C@H](CC[C@@H]4[C@@]5(C)CC[C@H](OC(C)=O)C(C)(C)[C@@H]5CC[C@]43C)[C@@H]12` [LUPENYL ACETATE], for which the Activity in data set [1] came out at 0%; in [2], 81.8%; in [5], 0%. Also, the EBV early antigen activation relative to TPA in data set [3] came out at 100%. Moreover, the EBV-EA activation relative to TPA in data set [4] worked out at 100%. The viability at 48 h, 5000 mol ratio relative to TPA in [6] worked out at 60%. Moreover, the viability at 48 h, 1000 mol ratio relative to TPA in data set [7] was determined as 80%. The viability at 48 h, 100 mol ratio relative to TPA in data set [8] turned out to be 100%. Moreover, in data set [9], the viability at 48 h, 10 mol ratio relative to TPA was determined as 100%.

As for `COC(=O)[C@]12CCC(C)(C)C[C@H]1C1=CC[C@@H]3[C@@]4(C)C[C@@H](O)[C@H](O)C(C)(C)[C@@H]4CC[C@@]3(C)[C@]1(C)CC2` [MASLINIC ACID METHYL ESTER], the Activity in [1] was determined as 0%; in [2], 65.6%; in data set [5], 0%. For the same compound, in data set [3], the EBV early antigen activation relative to TPA was determined as 100%. Also, the EBV-EA activation relative to TPA in data set [4] is 100%. Besides, the viability at 48 h, 5000 mol ratio relative to TPA in data set [6] came to 0%. In data set [7], the viability at 48 h, 1000 mol ratio relative to TPA worked out at 80%. The viability at 48 h, 100 mol ratio relative to TPA in [8] stood at 100%. In [9], the viability at 48 h, 10 mol ratio relative to TPA was found to be 100%.
